Assay results as given in US12180207B2 (ARRAY BIOPHARMA INC., priority 2018, dated 2024).

How the values were obtained:
[1] = biological target: recombinant human FGFR1 catalytic domain (amino acids 308-731) (Homo sapiens (Human), UniProt P11362); assay: FGFR1 enzyme activity assay (LanthaScreen TR-FRET); type: biochemical; conditions: 20 min incubation at 22° C., average of multiple determinations if made, read-out: FGFR1 Enz FRET IC50
How it was run: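 His-tagged FGFR1 kinase domain with 100 nM Alexa Fluor 647-poly-GT peptide and ATP in pH 7.5 HEPES/MgCl2 buffer with 2% DMSO, 20 min at 22 °C. Quenched with EDTA plus 2 nM Eu-PY20 antibody and read after 60 min. IC50 comes from a 4-parameter fit of percent of control.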

[2] = biological target: recombinant human FGFR3 (amino acids R397-T806) (Homo sapiens (Human), UniProt P22607); assay: FGFR3 enzyme activity assay (LanthaScreen TR-FRET); type: biochemical; conditions: 25 μM ATP, 10 min incubation at 22° C., average of multiple determinations if made, read-out: FGFR3 Enz FRET IC50
Chain of recombinant human FGFR3 (amino acids R397-T806) (P22607 397-806): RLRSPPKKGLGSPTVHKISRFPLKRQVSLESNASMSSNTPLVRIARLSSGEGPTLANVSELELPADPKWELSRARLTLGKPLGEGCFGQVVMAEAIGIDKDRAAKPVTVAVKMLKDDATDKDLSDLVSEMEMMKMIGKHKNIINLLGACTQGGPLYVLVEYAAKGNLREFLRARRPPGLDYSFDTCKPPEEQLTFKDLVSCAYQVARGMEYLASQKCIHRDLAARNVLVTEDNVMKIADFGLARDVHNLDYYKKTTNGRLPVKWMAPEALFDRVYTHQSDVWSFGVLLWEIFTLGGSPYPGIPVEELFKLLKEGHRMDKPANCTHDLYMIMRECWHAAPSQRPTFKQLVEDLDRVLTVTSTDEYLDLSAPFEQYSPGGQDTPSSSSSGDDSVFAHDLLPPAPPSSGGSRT
How it was run: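 GST-HIS6-tagged human FGFR3 (R397-T806) was reacted with 100 nM Alexa Fluor 647-Poly-GT substrate and 25 μM ATP plus compound in HEPES/MgCl2/Triton buffer, pH 7.5, 2% DMSO, for 10 min at 22 °C.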

[3] = biological target: recombinant human FGFR2 cytoplasmic domain (amino acids 403-822) (Homo sapiens (Human), UniProt P21802); assay: FGFR2 enzyme activity assay (LanthaScreen TR-FRET); type: biochemical; conditions: 15 μM ATP, 20 min incubation at 22° C., average of multiple determinations if made, read-out: FGFR2 Enz FRET IC50
Chain of recombinant human FGFR2 cytoplasmic domain (amino acids 403-822) (P21802 402-821): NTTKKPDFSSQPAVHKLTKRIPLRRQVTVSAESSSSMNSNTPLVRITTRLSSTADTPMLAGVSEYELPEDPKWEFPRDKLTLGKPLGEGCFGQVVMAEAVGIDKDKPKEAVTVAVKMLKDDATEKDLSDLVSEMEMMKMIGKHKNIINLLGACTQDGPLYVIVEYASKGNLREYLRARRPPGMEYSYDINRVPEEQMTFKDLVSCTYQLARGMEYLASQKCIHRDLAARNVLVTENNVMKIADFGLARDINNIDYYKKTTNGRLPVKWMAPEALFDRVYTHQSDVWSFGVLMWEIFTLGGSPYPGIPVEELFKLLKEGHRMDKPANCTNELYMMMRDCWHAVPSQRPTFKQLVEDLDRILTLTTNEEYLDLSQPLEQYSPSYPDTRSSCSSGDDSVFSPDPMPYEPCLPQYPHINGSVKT
How it was run: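 His-tagged FGFR2 cytoplasmic domain ([…]) with 100 nM Alexa Fluor 647-poly-GT peptide and 15 μM ATP in HEPES/MgCl2/Triton buffer, pH 7.5, 2% DMSO, 20 min at 22 °C. EDTA-quenched, Eu-PY20 antibody added, TR-FRET read after 60 min.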

[4] = biological target: FGFR3 (SEQ ID NO: 5, amino acids 449-759) (Homo sapiens (Human), UniProt P22607); assay: LC/MS FGFR3 kobs assay (covalent protein modification); type: binding; conditions: 500 nM FGFR3, 3 μM compound
Chain of FGFR3 (SEQ ID NO: 5, amino acids 449-759) (P22607 449-759): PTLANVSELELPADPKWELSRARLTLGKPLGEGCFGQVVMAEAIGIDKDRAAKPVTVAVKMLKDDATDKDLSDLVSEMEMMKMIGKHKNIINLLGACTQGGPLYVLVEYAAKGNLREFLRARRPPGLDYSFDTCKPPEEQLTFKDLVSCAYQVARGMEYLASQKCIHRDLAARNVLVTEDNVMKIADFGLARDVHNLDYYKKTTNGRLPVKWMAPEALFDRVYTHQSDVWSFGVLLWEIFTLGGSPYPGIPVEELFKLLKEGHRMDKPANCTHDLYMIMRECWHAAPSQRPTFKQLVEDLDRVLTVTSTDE
How it was run: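 Covalent modification of FGFR1 (aa 458-765) or FGFR3 (aa 449-759) followed over time; reactions quenched with 0.4% formic acid and analysed by Q-TOF LC/MS after deconvolution. Percent unmodified protein, normalized to DMSO controls, fit to exponential decay to give kobs; averaged where repeated.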

[5] = biological target: dephosphorylated FGFR1 (SEQ ID NO: 1, amino acids 458 to 765) (Homo sapiens (Human), UniProt P11362); assay: FGFR enzyme binding assay (HTRF tracer displacement), FGFR1; conditions: 5 nM dephosphorylated FGFR1, average of multiple determinations if made
Chain of dephosphorylated FGFR1 (SEQ ID NO: 1, amino acids 458 to 765) (P11362 458-765): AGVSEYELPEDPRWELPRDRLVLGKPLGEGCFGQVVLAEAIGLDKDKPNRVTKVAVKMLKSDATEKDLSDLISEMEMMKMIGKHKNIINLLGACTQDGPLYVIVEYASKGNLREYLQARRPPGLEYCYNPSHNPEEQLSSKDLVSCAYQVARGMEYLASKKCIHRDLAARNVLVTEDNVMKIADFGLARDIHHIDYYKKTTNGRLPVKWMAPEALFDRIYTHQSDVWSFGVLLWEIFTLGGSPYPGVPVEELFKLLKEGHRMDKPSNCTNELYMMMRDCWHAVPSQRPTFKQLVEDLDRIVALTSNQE
How it was run: (§1)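 Compounds were tested for displacement of a tracer from human FGFR kinase in a time-resolved FRET binding format. After 60 minutes at 22° C, signal was read at two wavelengths and converted to percent of control, normalised between untreated wells and 1 μM reference inhibitor.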

[6] = biological target: phosphorylated FGFR3 (SEQ ID NO: 5, amino acids 449 to 759) (Homo sapiens (Human), UniProt P22607); assay: FGFR enzyme binding assay (HTRF tracer displacement), FGFR3; conditions: 5 nM phosphorylated FGFR3, average of multiple determinations if made
Chain of phosphorylated FGFR3 (SEQ ID NO: 5, amino acids 449 to 759) (P22607 449-759): as the sequence (P22607 449-759) above
How it was run: as §1

[7] = biological target: FGFR1 (SEQ ID NO: 1, amino acids 458-765) (Homo sapiens (Human), UniProt P11362); assay: LC/MS FGFR1 kobs assay (covalent protein modification); type: binding; conditions: 500 nM FGFR1, 3 μM compound
Chain of FGFR1 (SEQ ID NO: 1, amino acids 458-765) (P11362 458-765): as the sequence (P11362 458-765) above
Method: The LC/MS FGFR1 and FGFR3 kobs assays were conducted as follows. […] At each time point, the reaction was quenched with 20 μL of 0.4% formic acid. The extent of protein modification by each compound was determined by LC/MS on an Agilent Technologies 6520 Q-TOF LC/MS. Protein signals were then automatically deconvoluted using Agilent Masshunter software. Deconvoluted mass signals were exported to Tibco Spotfire data analysis program for further processing and normalization.
Data analysis included five steps. First, the signals for the “DMSO Controls” were analyzed to determine the percent of signal associated with unmodified FGFR1 or FGFR3 at each time point. Next, the percent of the signal associated with the covalent modification was determined. Third, the average nonmodified “DMSO Control” signal was used to normalize the modified protein signals at each time point. The percent of unmodified protein was fit to an exponential decay model where A0 is the Percent Unmodified at the start of the reaction, and kobs is the observed rate constant over the time period.

Chain of recombinant human FGFR1 catalytic domain (amino acids 308-731) (P11362 other isoform, or with tags, fused parts or gaps): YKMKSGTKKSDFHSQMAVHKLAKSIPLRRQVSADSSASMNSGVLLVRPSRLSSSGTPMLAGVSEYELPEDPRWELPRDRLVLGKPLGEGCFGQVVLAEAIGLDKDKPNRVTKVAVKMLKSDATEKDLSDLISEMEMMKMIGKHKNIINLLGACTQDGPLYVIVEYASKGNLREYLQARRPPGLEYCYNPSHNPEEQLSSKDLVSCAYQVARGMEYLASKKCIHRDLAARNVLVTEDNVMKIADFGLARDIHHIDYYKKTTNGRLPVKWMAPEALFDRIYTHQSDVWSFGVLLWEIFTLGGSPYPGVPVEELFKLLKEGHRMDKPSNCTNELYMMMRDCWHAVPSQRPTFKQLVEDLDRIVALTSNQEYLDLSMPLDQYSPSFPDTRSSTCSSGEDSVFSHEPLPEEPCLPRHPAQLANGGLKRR

IC50 [1] [nM]	IC50 [2] [nM]	IC50 [3] [nM]	FGFR3 Enz kobs [4] [min⁻¹]	IC50 [5] [nM]	IC50 [6] [nM]	FGFR1 Enz kobs [7] [min⁻¹]	Structure (SMILES)
8	5	3	0.00341	47	12	0.00146	C=CC(=O)Nc1cccc(C(=O)N2CC[C@H](n3cc(-c4cc(OC)c5c(C#N)cnn5c4)cn3)C2)c1 [Example 67, (S)-N-(3-(3-(4-(3-cyano-4-methoxypyrazolo[1,5-a]pyridin-6-yl)-1H-pyrazol-1-yl)pyrrolidine-1-carbonyl)phenyl)acrylamide]
25	3	5	0.00117	36	7	0.00049	C=CC(=O)N1CC[C@@H](C(=O)N2CC[C@H](n3cc(-c4cc(OC)c5c(C#N)cnn5c4)cn3)C2)C1 [Example 72, 6-(1-((S)-1-((R)-1-acryloylpyrrolidine-3-carbonyl)pyrrolidin-3-yl)-1H-pyrazol-4-yl)-4-methoxypyrazolo[1,5-a]pyridine-3-carbonitrile]
39	13	14	0.002	120	22	0.00081	C=CC(=O)N1CCC(C(=O)N2CC(n3cc(-c4cc(OC)c5c(C#N)cnn5c4)cn3)C2)CC1 [Example 75, 6-(1-(1-(1-acryloylpiperidine-4-carbonyl)azetidin-3-yl)-1H-pyrazol-4-yl)-4-methoxypyrazolo[1,5-a]pyridine-3-carbonitrile]
26	7	7	0.00111	174	22	0.00024	C=CC(=O)N[C@H]1C[C@@H](C(=O)N2CC(n3cc(-c4cc(OC)c5c(C#N)cnn5c4)cn3)C2)C1 [Example 80, N-((1s,3s)-3-(3-(4-(3-cyano-4-methoxypyrazolo[1,5-a]pyridin-6-yl)-1H-pyrazol-1-yl)azetidine-1-carbonyl)cyclobutyl)acryl-amide]
13	3	5	0.00353	47	5	0.00044	C=CC(=O)N1CCN(c2ccc(-c3cc(OC)c4c(C#N)cnn4c3)cc2)CC1 [Example 99, 6-(4-(4-acryloylpiperazin-1-yl)phenyl)-4-methoxypyrazolo[1,5-a]pyridine-3-carbonitrile]
12	6	4	0.00352	56	8	0.0006	C=CC(=O)N1CCC(C(=O)N2CCN(c3ccc(-c4cc(OC)c5c(C#N)cnn5c4)cn3)CC2)CC1 [Example 109, 6-(6-(4-(1-acryloylpiperidine-4-carbonyl)piperazin-1-yl)pyridin-3-yl)-4-methoxypyrazolo[1,5-a]pyridine-3-carbonitrile]
16	6	5	0.00626	58	8	0.00068	C=CC(=O)N1CC[C@@H](C(=O)N2CCN(c3ccc(-c4cc(OC)c5c(C#N)cnn5c4)cn3)CC2)C1 [Example 110, (R)-6-(6-(4-(1-acryloylpyrrolidine-3-carbonyl)piperazin-1-yl)pyridin-3-yl)-4-methoxypyrazolo[1,5-a]pyridine-3-carbonitrile]
119	264	63	0.02206	2930	160	0.00274	C=CC(=O)N1CC(C(=O)N2CCN(c3ncc(-c4cc(OC)c5c(C#N)cnn5c4)cn3)CC2)C1 [Example 133, 6-(2-(4-(1-acryloylazetidine-3-carbonyl)piperazin-1-yl)pyrimidin-5-yl)-4-methoxypyrazolo[1,5-a]pyridine-3-carbonitrile]
39	4	6	0.00455	229	33	0.00121	COc1cc(-c2cnn(C3CN(CC4CN(C(=O)/C=C/CN5CCCCC5)C4)C3)c2)cn2ncc(C#N)c12 [Example 149, (E)-4-methoxy-6-(1-(1-((1-(4-(piperidin-1-yl)but-2-enoyl)azetidin-3-yl)methyl)azetidin-3-yl)-1H-pyrazol-4-yl)pyrazolo[1,5-a]pyridine-3-carbonitrile]
62	15	18	0.0002	800	223	0.00005	C=CC(=O)NC1CCN(C(=O)c2ccc(-c3cc(OC)c4c(C#N)cnn4c3)cc2)CC1 [Example 165, N-(1-(4-(3-cyano-4-methoxypyrazolo [1,5-a]pyridin-6-yl)benzoyl)piperidin-4-yl)acrylamide]
61	14	15	0.00177	129	48	0.00032	C=CC(=O)N1CCC(NC(=O)c2ccc(-c3cc(OC)c4c(C#N)cnn4c3)cc2)CC1 [Example 166, N-(1-acryloylpiperidin-4-yl)-4-(3-cyano-4-methoxypyrazolo [1,5-a]pyridin-6-yl)benzamide]
68	17	18	0.00039	1120	192	0.00004	C=CC(=O)NC1CCC(NC(=O)c2ccc(-c3cc(OC)c4c(C#N)cnn4c3)cc2)CC1 (stereo not drawn) [Example 167, N-(4-acrylamido-cyclohexyl)-4-(3-cyano-4-methoxypyrazolo [1,5-a]pyridin-6-yl)benzamide]
